Experimental findings from paper PMC6911004, “Fragment-based screening identifies molecules targeting the substrate-binding ankyrin repeat domains of tankyrase” (Scientific Reports, 2019) are described below.

Common to all, as to format: binding
The target in one assay is T1, TNKS2 ARC5 (Homo sapiens, UniProt Q9H2K2).
T1 construct: followed by TNKS2 ARC5 (1 μL, 100 μM stock); His6-GST; made in house; host or cells: E. coli
The assay is described as follows: T2 relaxation-edited ligand-observed NMR assay. The conditions noted are these: DSF hit validation. An excerpt:
39 hits from the DSF screen were suitable for follow-up by ligand-observed NMR methods. We re-purchased fragments and performed T2 relaxation-edited (CPMG-edited) and waterLOGSY experiments for each fragment with TNKS2 ARC5. We explored saturation transfer difference (STD) NMR, also using TNKS2 ARC5, but the assay was not sensitive enough to produce a reliable binding signal, likely due to the relatively small size of a single ARC protein (data not shown). High ligand concentrations were required to achieve sufficient signal, which in turn could lead to false-positive hits due to non-specific binding.
Using the relaxation-edited assay, we tested each fragment in three independent measurements (Fig. 2C), unless we obtained two negative results (non-binding) in the first two experiments. […] As a negative NOE for the compound-only sample could indicate aggregation, we flagged these compounds as potentially problematic. We identified 14 fragments that bound to TNKS2 ARC5 by both relaxation-edited and waterLOGSY methods (0.78% hit rate). We next tested whether binding of these fragments occurred competitively with the 3BP2 TBM peptide, and also if they bound to TNKS2 ARC4, as competition with peptide binders at various different ARCs will be a prerequisite for an efficient substrate binding antagonist. Three fragments (1, 2, 3) bound to both TNKS2 ARC4 and ARC5 and were competitive with the TBM peptide (0.16% hit rate) (Fig. 2E). Three further fragments also bound to both ARCs, but were not TBM competitive by NMR.
Fragments were dispensed in duplicate into a 384-well plate (250 nL, 100 mM stock in DMSO). Wells were backfilled with DMSO (2.25 μL). Tankyrase ARC protein (47.5 μL in 25 mM HEPES, pH 7.5, 100 mM NaCl, 2 mM TCEP, 10% D2O; 20 μM final protein concentration in the assay) was added to the ‘protein’ samples; buffer only (47.5 μL) was added to the ‘compound-only’ samples. Solutions were transferred to 1.7 mm NMR tubes using a Gilson liquid handling system. ^1H NMR spectra were recorded, with the DMSO and water signals dampened. A relaxation spin filter was applied at 400 ms[65]. Data were processed using Bruker Topspin 3.14. Lines were broadened with LB = 3.0, and the baseline was corrected between 6.0–10.0 ppm. The average integral for all peaks between 6.0–10.0 ppm was calculated, and the difference between compound-only and compound-plus-protein samples was compared. A reduction in signal integrals of ≥15% was classified as a hit. For competitive experiments, 3BP2 16-mer peptide (100 μM) was added, and the spectra were recorded and processed as above. The variability in signal reduction in the relaxation-edited experiment was previously determined as approximately ± 10% (Liu et al., unpublished observations).

The next assay addresses T2, TNKS2 ARC1 (20–178) (Homo sapiens, UniProt Q9H2K2).
T2 construct: TNKS2 ARC1 (20–178); His6-GST; made in house; host or cells: E. coli
The assay is described as follows: T2 relaxation-edited ligand-observed NMR assay. An excerpt: The anticipated functional redundancy between ARCs and the existence of two tankyrase paralogues will require efficient substrate binding antagonists to ideally bind all TBM-binding ARCs of both TNKS and TNKS2. […] We tested binding of compound 9 to all TNKS and TNKS2 ARCs using the relaxation-edited NMR assay (Fig. 4E, Table 3). Compound 9 bound all ARCs, with the exception of TNKS2 ARC1. Given the invariant residue infrastructure of the peptide-binding pocket in ARC1 of TNKS and TNKS2, this observation is difficult to reconcile with available structural information. […]
(§1) Fragments were dispensed in duplicate into a 384-well plate (250 nL, 100 mM stock in DMSO). […] Solutions were transferred to 1.7 mm NMR tubes using a Gilson liquid handling system. ^1H NMR spectra were recorded, with the DMSO and water signals dampened. […] The average integral for all peaks between 6.0–10.0 ppm was calculated, and the difference between compound-only and compound-plus-protein samples was compared. […] For competitive experiments, 3BP2 16-mer peptide (100 μM) was added, and the spectra were recorded and processed as above. The variability in signal reduction in the relaxation-edited experiment was previously determined as approximately ± 10% (Liu et al., unpublished observations).

Assay [1] addresses T3, TNKS2 ARC4 aromatic glycine sandwich (YY536/569AA) (Homo sapiens, UniProt Q9H2K2, Y536A/Y569A).
T3 construct: TNKS2 ARC4 (488–649); His6-GST; made in house; host or cells: E. coli BL21-CodonPlus (DE3)-RIL
The assay is described as follows: T2 relaxation-edited NMR with mutant ARC.
Excerpt: We used three previously designed TNKS2 ARC4 mutant variants[4] to explore potential binding determinants for fragment 9. A WFE591/593/598AAA triple-mutation abrogates three key residues in the “arginine cradle”; YY536/569AA truncates two tyrosine residues that form the “glycine sandwich”, and L560W introduces a bulky residue into the “central patch” that sterically clashes with the TBM peptide (see Fig. 5A,B for locations of the mutated residues). We tested binding of compound 9 to the wild-type and mutant ARCs by ligand-observed NMR, using the relaxation-edited assay (Fig. 5C, Table 4). […] Binding was impaired but not abolished for the “central patch” mutant variant (L560W).
as §1

Molecules are shown by their SMILES.

For `O=C(NCc1ccco1)c1ccc(F)cc1` [compound 3], on TNKS2 ARC5 (relaxation-edited and waterLOGSY), the “binding to TNKS2 ARC5 by ligand-observed NMR, in words” value is listed as “bound”. Further, the “competition with the 3BP2 TBM peptide by relaxation-edited NMR” value on TNKS2 ARC5 (ARC used for competition not given) was “competitive”.

As to `O=C(NCc1ccco1)c1ccc2nccnc2c1` [compound 9], the “T2 relaxation-edited: reduction of signal integrals” value (at TNKS2 ARC1 (20–178); in assay [1]) was 0% each time.
